Results reported in publication PMC10269895 (Microbiology Spectrum, 2023).

Columns and labels:
Assay in all cases: Off-target ion channel profiling (automated patch clamp)
Assay type in all cases: cell-based
Details in all cases: concentrations up to 30 μM
[1] = target: hCaV3.1 (Homo sapiens, UniProt O43497)
Method: (§1) The effect of GE81112A on the hERG and other ion channels (hNaV1.5, hNaV1.2, hCaV3.1, or hKV4.3) was investigated using an automated patch-clamp method, as described by Houtmann et al. ([17]). GE81112A was diluted in a 5-fold 1:3 dilution series with a final concentration range of 30 to 0.12 μM in extracellular medium (150 mM NaCl, 4 mM KCl, 2 mM CaCl2, 1 mM MgCl2, 10 mM HEPES, 10 mM glucose, 0.06% Pluronic F-68, 0.3% residual DMSO). The hERG channel was constitutively expressed in Chinese hamster ovary (CHO) cells (CHO hERG Duo; B’SYS GmbH, Witterswil, Switzerland). CHO cells were grown at a concentration of 8 × 10^6 CHO cells/mL in QPlates (Sophion/Biolin Scientific, Ballerup, Denmark) in Ex-Cell animal component-free CHO medium (Sigma-Aldrich) supplemented with 25 mM HEPES, 100 U/mL penicillin-streptomycin, and 0.004% soybean trypsin inhibitor. To each well, we added extracellular medium containing the desired concentration of GE81112A. The peptide-hERG interaction was quantified by recording the tail current following repolarization of the hERG channels using a QPatch HTX station (Sophion/Biolin Scientific). The IC50 values were determined using the values from three replicates of the GE81112A concentration series with respect to the terfenadine citrate positive control and extracellular medium (blank).

[2] = target: T1, hERG (Homo sapiens, UniProt Q12809)
T1 construct: host or cells: CHO
T1 sequence (Q12809 whole entry): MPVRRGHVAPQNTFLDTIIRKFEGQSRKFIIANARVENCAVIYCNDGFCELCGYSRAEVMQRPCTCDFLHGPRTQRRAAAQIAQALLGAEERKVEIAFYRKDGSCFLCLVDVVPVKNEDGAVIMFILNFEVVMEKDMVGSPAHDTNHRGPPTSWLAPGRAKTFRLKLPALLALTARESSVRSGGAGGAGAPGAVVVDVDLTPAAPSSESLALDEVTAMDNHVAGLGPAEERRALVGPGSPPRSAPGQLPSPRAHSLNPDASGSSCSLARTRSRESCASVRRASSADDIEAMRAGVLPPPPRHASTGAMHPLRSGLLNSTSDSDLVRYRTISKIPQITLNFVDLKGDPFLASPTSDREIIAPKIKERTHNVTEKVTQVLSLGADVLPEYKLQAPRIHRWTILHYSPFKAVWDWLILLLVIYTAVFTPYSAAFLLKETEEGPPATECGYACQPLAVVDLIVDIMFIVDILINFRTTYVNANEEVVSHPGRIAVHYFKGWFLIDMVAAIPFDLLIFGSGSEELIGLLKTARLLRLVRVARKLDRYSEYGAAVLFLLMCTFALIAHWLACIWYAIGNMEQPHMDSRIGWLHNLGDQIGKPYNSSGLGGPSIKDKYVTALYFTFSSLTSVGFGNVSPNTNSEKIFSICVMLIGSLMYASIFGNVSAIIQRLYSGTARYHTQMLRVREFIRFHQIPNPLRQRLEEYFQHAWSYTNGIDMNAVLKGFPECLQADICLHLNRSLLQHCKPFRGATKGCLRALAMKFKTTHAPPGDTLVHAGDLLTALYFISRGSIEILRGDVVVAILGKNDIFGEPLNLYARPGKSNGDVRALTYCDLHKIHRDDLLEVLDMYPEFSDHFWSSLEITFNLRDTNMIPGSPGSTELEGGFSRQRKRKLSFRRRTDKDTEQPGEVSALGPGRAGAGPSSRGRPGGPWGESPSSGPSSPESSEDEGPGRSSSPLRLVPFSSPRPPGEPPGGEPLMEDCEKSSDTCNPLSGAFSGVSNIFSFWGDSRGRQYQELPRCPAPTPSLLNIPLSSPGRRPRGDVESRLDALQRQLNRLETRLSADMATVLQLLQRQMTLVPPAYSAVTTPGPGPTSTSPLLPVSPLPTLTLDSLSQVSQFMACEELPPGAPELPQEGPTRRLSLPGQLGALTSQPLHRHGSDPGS
Method: as §1

[3] = target: hKV4.3 (Homo sapiens, UniProt Q9UK17)
Sequence of hKV4.3 (Q9UK17 whole entry): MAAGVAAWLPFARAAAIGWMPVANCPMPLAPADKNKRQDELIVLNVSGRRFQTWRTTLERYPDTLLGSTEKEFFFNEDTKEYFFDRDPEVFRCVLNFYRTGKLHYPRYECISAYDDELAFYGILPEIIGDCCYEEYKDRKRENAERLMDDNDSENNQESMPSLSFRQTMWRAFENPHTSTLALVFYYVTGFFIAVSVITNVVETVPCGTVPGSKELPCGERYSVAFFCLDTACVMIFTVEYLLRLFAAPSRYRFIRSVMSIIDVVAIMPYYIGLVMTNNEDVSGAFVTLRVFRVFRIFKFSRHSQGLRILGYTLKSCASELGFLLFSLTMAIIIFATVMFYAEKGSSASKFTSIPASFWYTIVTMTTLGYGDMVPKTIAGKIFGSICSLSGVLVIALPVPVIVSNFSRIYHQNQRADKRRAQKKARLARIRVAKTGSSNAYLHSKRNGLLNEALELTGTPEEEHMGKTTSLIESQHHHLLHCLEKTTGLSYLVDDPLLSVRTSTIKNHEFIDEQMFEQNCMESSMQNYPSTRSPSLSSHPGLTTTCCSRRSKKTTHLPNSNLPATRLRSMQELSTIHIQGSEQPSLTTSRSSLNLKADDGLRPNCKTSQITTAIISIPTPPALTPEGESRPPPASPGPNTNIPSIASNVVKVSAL
Method: as §1

[4] = target: hNaV1.2 (Homo sapiens, UniProt Q99250)
Method: as §1

Measured: Ion channel inhibition

Sequence of hCaV3.1 (O43497 whole entry): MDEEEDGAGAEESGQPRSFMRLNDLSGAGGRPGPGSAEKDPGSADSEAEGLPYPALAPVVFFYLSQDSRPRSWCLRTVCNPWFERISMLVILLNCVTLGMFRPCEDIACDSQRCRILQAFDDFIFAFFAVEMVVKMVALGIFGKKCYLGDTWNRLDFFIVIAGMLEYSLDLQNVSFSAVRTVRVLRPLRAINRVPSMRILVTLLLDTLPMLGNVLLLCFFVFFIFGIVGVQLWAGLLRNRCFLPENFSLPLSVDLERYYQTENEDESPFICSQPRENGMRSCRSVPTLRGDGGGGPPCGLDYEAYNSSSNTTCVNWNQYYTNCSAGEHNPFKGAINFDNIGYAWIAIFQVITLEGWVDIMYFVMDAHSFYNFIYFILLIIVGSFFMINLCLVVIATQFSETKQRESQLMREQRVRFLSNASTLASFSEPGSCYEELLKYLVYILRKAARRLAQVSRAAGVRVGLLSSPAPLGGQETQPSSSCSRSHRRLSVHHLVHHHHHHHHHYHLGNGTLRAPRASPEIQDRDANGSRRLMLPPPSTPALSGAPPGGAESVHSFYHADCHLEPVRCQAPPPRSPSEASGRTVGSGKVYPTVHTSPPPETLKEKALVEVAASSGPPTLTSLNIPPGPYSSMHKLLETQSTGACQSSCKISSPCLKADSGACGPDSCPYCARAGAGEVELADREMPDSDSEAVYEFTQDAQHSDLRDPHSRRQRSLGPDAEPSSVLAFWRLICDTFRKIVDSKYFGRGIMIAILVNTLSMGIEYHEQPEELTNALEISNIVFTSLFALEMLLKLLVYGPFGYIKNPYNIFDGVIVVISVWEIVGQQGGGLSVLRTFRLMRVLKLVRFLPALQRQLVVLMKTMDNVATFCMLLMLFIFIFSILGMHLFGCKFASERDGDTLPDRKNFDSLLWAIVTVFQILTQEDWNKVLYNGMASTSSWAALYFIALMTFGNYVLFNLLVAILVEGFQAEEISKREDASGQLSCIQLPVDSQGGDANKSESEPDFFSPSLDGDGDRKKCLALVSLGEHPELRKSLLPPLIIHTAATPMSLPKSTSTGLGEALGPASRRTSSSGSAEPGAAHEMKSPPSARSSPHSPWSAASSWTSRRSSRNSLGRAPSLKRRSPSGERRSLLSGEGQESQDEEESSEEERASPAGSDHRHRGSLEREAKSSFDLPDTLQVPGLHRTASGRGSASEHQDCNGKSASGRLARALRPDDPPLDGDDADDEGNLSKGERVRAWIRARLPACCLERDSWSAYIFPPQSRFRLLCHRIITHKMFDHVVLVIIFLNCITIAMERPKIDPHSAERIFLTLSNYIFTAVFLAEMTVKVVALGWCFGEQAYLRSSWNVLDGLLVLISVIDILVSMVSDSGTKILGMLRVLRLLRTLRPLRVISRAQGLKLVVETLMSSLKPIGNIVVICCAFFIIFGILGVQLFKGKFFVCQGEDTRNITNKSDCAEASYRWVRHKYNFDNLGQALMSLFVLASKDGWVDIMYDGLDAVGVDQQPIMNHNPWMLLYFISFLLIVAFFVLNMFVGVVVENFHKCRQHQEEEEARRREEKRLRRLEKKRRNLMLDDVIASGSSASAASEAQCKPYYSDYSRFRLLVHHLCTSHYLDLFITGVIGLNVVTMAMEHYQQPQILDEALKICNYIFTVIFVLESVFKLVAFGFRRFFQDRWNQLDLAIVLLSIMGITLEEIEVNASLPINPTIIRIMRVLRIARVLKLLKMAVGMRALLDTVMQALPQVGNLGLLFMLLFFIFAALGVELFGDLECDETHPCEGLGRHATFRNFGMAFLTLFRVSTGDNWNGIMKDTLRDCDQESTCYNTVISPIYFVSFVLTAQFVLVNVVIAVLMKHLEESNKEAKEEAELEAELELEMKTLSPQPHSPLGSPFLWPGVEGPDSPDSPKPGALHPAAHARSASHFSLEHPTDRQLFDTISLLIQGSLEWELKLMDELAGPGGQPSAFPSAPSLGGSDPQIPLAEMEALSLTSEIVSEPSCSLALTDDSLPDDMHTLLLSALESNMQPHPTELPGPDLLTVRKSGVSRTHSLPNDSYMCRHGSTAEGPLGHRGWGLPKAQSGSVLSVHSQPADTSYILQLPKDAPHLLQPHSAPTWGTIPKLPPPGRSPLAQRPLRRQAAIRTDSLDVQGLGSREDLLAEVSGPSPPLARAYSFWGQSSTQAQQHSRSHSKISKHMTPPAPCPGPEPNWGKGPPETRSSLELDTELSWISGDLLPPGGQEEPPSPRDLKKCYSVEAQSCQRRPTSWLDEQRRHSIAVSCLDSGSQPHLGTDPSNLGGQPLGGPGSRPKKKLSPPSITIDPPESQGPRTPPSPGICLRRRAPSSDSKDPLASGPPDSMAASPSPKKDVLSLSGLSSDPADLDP

NC(=O)OC[C@@H](O)C[C@H](NC(=O)[C@H]1NCCC[C@H]1O)C(=O)N[C@@H](Cc1c[nH]cn1)C(=O)N[C@H](C(=O)O)[C@H](O)c1cnc(Cl)[nH]1 [GE81112A]
did not inhibit: all assays above
